EP0319030A1, “Aminopropanol derivatives of 1,4:3,6-dianhydro-hexitol nitrates, processes for their preparation and their use as medicaments” (Heinrich Mack Nachf., priority 1987, dated 1989)
Marks after values point to notes of the source that are not given here.

What was measured:
Format in all cases: in vivo
Mice = assay: Peroral tolerance in mice; conditions: mouse, in vivo
Source text: Set forth below is data obtained on the compounds of Examples 17, 19 and 20 that illustrates the pharmacological action of the compounds of the present invention.

anesthetized rat = assay: Lypressin-induced T-wave increase in the ECG (lypressin coronary spasm), method of M. Leitold et al.
Source text: (§1) In particular, they have a pronounced cardiovascular action. On isolated strips of veins from dogs, they act against the K⁺-induced contraction in a lower concentration than on aorta strips. On isolated hearts from guinea pigs, they increase coronary flow as a function of the dose. On anesthetized rats, they prevent lypressin coronary spasm as a function of the dose and significiantly increase the survival rate of rats following acute cardiac infarction. On normotensive conscious dogs, they lower the systolic blood pressure for a period of 6-8 hours after oral administration. On artifically respirated anesthetized, thoraxotomized dogs, they reduce the mean arterial pressure, the left ventricular systolic pressure, the left ventricular end diastolic pressure and the pressure in the Arteria pulmonalis and reduce the peripheral vascular resistance. In contrast to the known organic nitrate esters, they also lead to a long-lasting reduction in the systolic blood pressure of spontaneously hypertensive rats. Such an action profile is not known for any of the substances of similar structure which have already been described.

rats = assay: Survival rate after acute coronary ligature, method of I. Lepran et al.; conditions: 30.0 mg/kg orally 5 minutes before ligature
Source text: as §1

anesthetized dogs = assay: Cardiovascular actions following intra-venous administration, opened thorax and artificial respiration; conditions: opened thorax, artificial respiration
Source text: as §1

conscious beagle dogs = assay: Systolic blood pressure and heart rate following peroral administration; conditions: 6.0 mg/kg peroral, mean ± SEM
Source text: as §1

COc1ccccc1N1CCN(CC(O)CO[C@H]2CO[C@H]3[C@@H]2OC[C@H]3O[N+](=O)[O-])CC1 (stereo partly shown) [Example 17, 2-O-<3-[4-(2-Methoxyphenyl)-piperazinyl]-2-hydroxypropyl>-isosorbide-5-nitrate]
tolerance (clinical symptoms, fatal consequences) (Mice): without clinical symptoms and without fatal consequences | ED50 (anesthetized rat; Rattus norvegicus, po, 0.5 h, perorally 30 minutes before the lypressin injection, dose column in mg/kg): 89.5 mg/kg | Duration of action at the ED50 dose (anesthetized rat; perorally at various times before the lypressin injection): 2 h | Number of rats surviving after an acute coronary ligature, 24 hours (rats; control 21/80): 17/20** | Number of rats surviving after an acute coronary ligature, 7 days (rats; control 21/80): 17/20** | Number of rats surviving after an acute coronary ligature, 60 minutes (rats; control 23/80): 17/20** | CO, Action of substance (anesthetized dogs; 30 µg/kg intra-venous): 0.93 ± 0.07 l/M | CO, Change (anesthetized dogs; 30 µg/kg intra-venous): 0.07 ± 0.04 l/M | CO, Duration of action (anesthetized dogs; 30 µg/kg intra-venous): 6 ± 3 min | HR (heart rate), Action of substance (anesthetized dogs; 30 µg/kg intra-venous): 219 ± 18 Bts/M | HR (heart rate), Change (anesthetized dogs; 30 µg/kg intra-venous): 21 ± 18 Bts/M | HR (heart rate), Duration of action (anesthetized dogs; 30 µg/kg intra-venous): 6 ± 2 min | LVEDP (left ventricular enddiastolic pressure), Action of substance (anesthetized dogs; 30 µg/kg intra-venous): 6.2 ± 0.7 mmHg | LVEDP (left ventricular enddiastolic pressure), Change (anesthetized dogs; 30 µg/kg intra-venous): 0.2 ± 0.03 mmHg | LVEDP (left ventricular enddiastolic pressure), Duration of action (anesthetized dogs; 30 µg/kg intra-venous): 2.2 ± 1.3 min | LVSP (left ventricular systolic blood pressure), Action of substance (anesthetized dogs; 30 µg/kg intra-venous): 131 ± 9 mmHg | LVSP (left ventricular systolic blood pressure), Change (anesthetized dogs; 30 µg/kg intra-venous): 19 ± 6 mmHg | LVSP (left ventricular systolic blood pressure), Duration of action (anesthetized dogs; 30 µg/kg intra-venous): 5 ± 3 min | MAP (mean arterial blood pressure), Action of substance (anesthetized dogs; 30 µg/kg intra-venous): 83 ± 1 mmHg | MAP (mean arterial blood pressure), Change (anesthetized dogs; 30 µg/kg intra-venous): 23 ± 2 mmHg | MAP (mean arterial blood pressure), Duration of action (anesthetized dogs; 30 µg/kg intra-venous): 14 ± 1 min | PAP, Action of substance (anesthetized dogs; 30 µg/kg intra-venous): 17.0 ± 4 mmHg | PAP, Change (anesthetized dogs; 30 µg/kg intra-venous): 1.3 ± 0.5 mmHg | PAP, Duration of action (anesthetized dogs; 30 µg/kg intra-venous): 2 ± 0.3 min | SV, Action of substance (anesthetized dogs; 30 µg/kg intra-venous): 52 ± 0.4 mL/s | SV, Change (anesthetized dogs; 30 µg/kg intra-venous): 0.4 ± 0.2 mL/s | SV, Duration of action (anesthetized dogs; 30 µg/kg intra-venous): 2 ± 0.2 min | TPR (total peripheral vascular resistance), Action of substance (anesthetized dogs; 30 µg/kg intra-venous): 65 ± 12 mmHg/ml | TPR (total peripheral vascular resistance), Change (anesthetized dogs; 30 µg/kg intra-venous): 23 ± 4 mmHg/ml | TPR (total peripheral vascular resistance), Duration of action (anesthetized dogs; 30 µg/kg intra-venous): > 14 min | dp/dtmax (maximum rate of increase in the left ventricular pressure), Action of substance (anesthetized dogs; 30 µg/kg intra-venous): 3144 ± 166 mmHg/s | dp/dtmax (maximum rate of increase in the left ventricular pressure), Change (anesthetized dogs; 30 µg/kg intra-venous): 424 ± 95 mmHg/s | dp/dtmax (maximum rate of increase in the left ventricular pressure), Duration of action (anesthetized dogs; 30 µg/kg intra-venous): 8 ± 3 min | CO, Action of substance (anesthetized dogs; 300 µg/kg intra-venous): 0.684 ± 0.137 l/M | CO, Change (anesthetized dogs; 300 µg/kg intra-venous): 0.127 ± 0.046 l/M | CO, Duration of action (anesthetized dogs; 300 µg/kg intra-venous): 73 ± 40 min | HR (heart rate), Action of substance (anesthetized dogs; 300 µg/kg intra-venous): 206 ± 15 Bts/M | HR (heart rate), Change (anesthetized dogs; 300 µg/kg intra-venous): 15 ± 13 Bts/M | HR (heart rate), Duration of action (anesthetized dogs; 300 µg/kg intra-venous): 2.4 ± 1 min | LVEDP (left ventricular enddiastolic pressure), Action of substance (anesthetized dogs; 300 µg/kg intra-venous): 5.5 ± 0.8 mmHg | LVEDP (left ventricular enddiastolic pressure), Change (anesthetized dogs; 300 µg/kg intra-venous): 0.3 ± 0.1 mmHg | LVEDP (left ventricular enddiastolic pressure), Duration of action (anesthetized dogs; 300 µg/kg intra-venous): 5.6 ± 2 min | LVSP (left ventricular systolic blood pressure), Action of substance (anesthetized dogs; 300 µg/kg intra-venous): 115 ± 4 mmHg | LVSP (left ventricular systolic blood pressure), Change (anesthetized dogs; 300 µg/kg intra-venous): 39 ± 5 mmHg | LVSP (left ventricular systolic blood pressure), Duration of action (anesthetized dogs; 300 µg/kg intra-venous): 151 ± 24 min | MAP (mean arterial blood pressure), Action of substance (anesthetized dogs; 300 µg/kg intra-venous): 49 ± 3 mmHg | MAP (mean arterial blood pressure), Change (anesthetized dogs; 300 µg/kg intra-venous): 55 ± 6 mmHg | MAP (mean arterial blood pressure), Duration of action (anesthetized dogs; 300 µg/kg intra-venous): 157 ± 39 min | PAP, Action of substance (anesthetized dogs; 300 µg/kg intra-venous): 18.2 ± 5 mmHg | PAP, Change (anesthetized dogs; 300 µg/kg intra-venous): 1.5 ± 0.5 mmHg | PAP, Duration of action (anesthetized dogs; 300 µg/kg intra-venous): 1.4 ± 0.1 min | SV, Action of substance (anesthetized dogs; 300 µg/kg intra-venous): 3.7 ± 0.4 mL/s | SV, Change (anesthetized dogs; 300 µg/kg intra-venous): 0.7 ± 0.3 mL/s | SV, Duration of action (anesthetized dogs; 300 µg/kg intra-venous): 74 ± 43 min | TPR (total peripheral vascular resistance), Action of substance (anesthetized dogs; 300 µg/kg intra-venous): 42 ± 2 mmHg/ml | TPR (total peripheral vascular resistance), Change (anesthetized dogs; 300 µg/kg intra-venous): 42 ± 6 mmHg/ml | TPR (total peripheral vascular resistance), Duration of action (anesthetized dogs; 300 µg/kg intra-venous): 163 ± 16 min | dp/dtmax (maximum rate of increase in the left ventricular pressure), Action of substance (anesthetized dogs; 300 µg/kg intra-venous): 2133 ± 310 mmHg/s | dp/dtmax (maximum rate of increase in the left ventricular pressure), Change (anesthetized dogs; 300 µg/kg intra-venous): 1547 ± 423 mmHg/s | dp/dtmax (maximum rate of increase in the left ventricular pressure), Duration of action (anesthetized dogs; 300 µg/kg intra-venous): > 197 min | CO, Action of substance (anesthetized dogs; 3000 µg/kg intra-venous): 0.405 ± 0.055 l/M | CO, Change (anesthetized dogs; 3000 µg/kg intra-venous): 0.450 ± 0.025 l/M | CO, Duration of action (anesthetized dogs; 3000 µg/kg intra-venous): > 75 min | HR (heart rate), Action of substance (anesthetized dogs; 3000 µg/kg intra-venous): 182 ± 17 Bts/M | HR (heart rate), Change (anesthetized dogs; 3000 µg/kg intra-venous): 20 ± 17 Bts/M | HR (heart rate), Duration of action (anesthetized dogs; 3000 µg/kg intra-venous): 1.4 ± 0.3 min | LVEDP (left ventricular enddiastolic pressure), Action of substance (anesthetized dogs; 3000 µg/kg intra-venous): 5.6 ± 1 mmHg | LVEDP (left ventricular enddiastolic pressure), Change (anesthetized dogs; 3000 µg/kg intra-venous): 0.6 ± 0.3 mmHg | LVEDP (left ventricular enddiastolic pressure), Duration of action (anesthetized dogs; 3000 µg/kg intra-venous): > 73 min | LVSP (left ventricular systolic blood pressure), Action of substance (anesthetized dogs; 3000 µg/kg intra-venous): 113 ± 3 mmHg | LVSP (left ventricular systolic blood pressure), Change (anesthetized dogs; 3000 µg/kg intra-venous): 48 ± 3 mmHg | LVSP (left ventricular systolic blood pressure), Duration of action (anesthetized dogs; 3000 µg/kg intra-venous): > 74 min | MAP (mean arterial blood pressure), Action of substance (anesthetized dogs; 3000 µg/kg intra-venous): 33 ± 2 mmHg | MAP (mean arterial blood pressure), Change (anesthetized dogs; 3000 µg/kg intra-venous): 67 ± 4 mmHg | MAP (mean arterial blood pressure), Duration of action (anesthetized dogs; 3000 µg/kg intra-venous): > 114 min | PAP, Action of substance (anesthetized dogs; 3000 µg/kg intra-venous): 18.2 ± 7 mmHg | PAP, Change (anesthetized dogs; 3000 µg/kg intra-venous): 2.3 ± 0.8 mmHg | PAP, Duration of action (anesthetized dogs; 3000 µg/kg intra-venous): 2 ± 0.6 min | SV, Action of substance (anesthetized dogs; 3000 µg/kg intra-venous): 3.0 ± 0.6 mL/s | SV, Change (anesthetized dogs; 3000 µg/kg intra-venous): 2.6 ± 0.4 mL/s | SV, Duration of action (anesthetized dogs; 3000 µg/kg intra-venous): > 75 min | TPR (total peripheral vascular resistance), Action of substance (anesthetized dogs; 3000 µg/kg intra-venous): 44 ± 10 mmHg/ml | TPR (total peripheral vascular resistance), Change (anesthetized dogs; 3000 µg/kg intra-venous): 74 ± 6 mmHg/ml | TPR (total peripheral vascular resistance), Duration of action (anesthetized dogs; 3000 µg/kg intra-venous): 24 ± 6 min | dp/dtmax (maximum rate of increase in the left ventricular pressure), Action of substance (anesthetized dogs; 3000 µg/kg intra-venous): 2019 ± 123 mmHg/s | dp/dtmax (maximum rate of increase in the left ventricular pressure), Change (anesthetized dogs; 3000 µg/kg intra-venous): 1828 ± 238 mmHg/s | dp/dtmax (maximum rate of increase in the left ventricular pressure), Duration of action (anesthetized dogs; 3000 µg/kg intra-venous): > 75 min | HR (heart rate), Action of substance after 1 hours (conscious beagle dogs): 101 ± 17 Bts/M | HR (heart rate), Action of substance after 2 hours (conscious beagle dogs): 110 ± 16 Bts/M | HR (heart rate), Action of substance after 4 hours (conscious beagle dogs): 89 ± 8 Bts/M | HR (heart rate), Action of substance after 6 hours (conscious beagle dogs): 89 ± 5 Bts/M | HR (heart rate), Action of substance after 8 hours (conscious beagle dogs): 85 ± 7 Bts/M | SBP (systolic blood pressure), Action of substance after 1 hours (conscious beagle dogs): 91 ± 6 mmHg | SBP (systolic blood pressure), Action of substance after 2 hours (conscious beagle dogs): 89 ± 4 mmHg | SBP (systolic blood pressure), Action of substance after 4 hours (conscious beagle dogs): 97 ± 5 mmHg | SBP (systolic blood pressure), Action of substance after 6 hours (conscious beagle dogs): 101 ± 5 mmHg | SBP (systolic blood pressure), Action of substance after 8 hours (conscious beagle dogs): 115 ± 7 mmHg
